Experiments:
[1] = test system: ES cells or the iPS cells; experiment: Sphere formation and Pax6 immunostaining after 18 days of suspension culture; format: cell-based, human
Experimental: On the day before induction of differentiation, in order to separate the ES cells or the iPS cells, which had been cultured in a culture medium to which 10 μM Y-27632 (WAKO) had been added, from the SNL feeder cells, the SNL cells were removed with CTK and the remaining cells were then dissociated using Accumax (ICT). The cells were transferred on a 96-well plate (Lipidure-coat 96-well plate (NOF Corporation)) in an amount of 9×10^3 cells per well. Thereafter, the cells were subjected to a suspension culture in DMEM/F12 (WAKO) comprising 50 μM Y-27632 (WAKO), 10 μM SB43152 (Sigma), 10 ng/ml bFGF (Invitrogen), various types of Wnt inhibitors (DKK1 (R & D, 500 ng/ml), C59 (Cellagen Technology, 2-10 nM), XAV (Stemgent, 500 nM-2 μM) or IWP4 (Stemgent, 500 nM-2.5 μM)), LDN193189 (Stemgent), KSR (Invitrogen), 0.1 mM MEM non-essential amino acid (Invitrogen), 0.1 mM 2-mercaptoethanol (WAKO), and 2 mM L-Gln (Invitrogen) (initiation of differentiation induction, day 0). […] Furthermore, the expression levels of the Foxg1, Lhx2, Emx2 and CoupTF1 genes in the obtained spheres were measured according to a qPCR method (FIG. 4B). […]

[2] = test system: ES cells or the iPS cells; experiment: Immunostaining for CoupTF1 and Ctip2 after 46 days of cerebral cortex differentiation; format: cell-based, human; conditions: 2 nM C59 as Wnt inhibitor, 46 days; compared with 500 ng/ml DKK1, 500 nM XAV
Text: Human ES cells (KhES-1) were obtained from Institute for Frontier Medical Sciences, Kyoto University (Suemori H, et al. Biochem Biophys Res Commun. 345: 926-32, 2006). The human iPS cells 404C2 are cells obtained by introducing Oct3/4, Sox2, Klf4, L-MYC, LIN28 and p53shRNA into human fibroblasts, using an episomal vector, and these cells were obtained from Professor Yamanaka et al. in Kyoto University (Okita, et al, Nat Methods. 8: 409-412, 2011). The human iPS cells 836B1 are cells obtained by introducing Oct3/4, Sox2, Klf4, L-MYC, LIN28, GLIS1 and p53shRNA into human fibroblasts, using an episomal vector, and these cells were obtained from Professor Yamanaka et al. in Kyoto University. The ES cells and the iPS cells were cultured on SNL cells (Takahashi K, et al, Cell. 131: 861-872, 2007).
On the day before induction of differentiation, in order to separate the ES cells or the iPS cells, which had been cultured in a culture medium to which 10 μM Y-27632 (WAKO) had been added, from the SNL feeder cells, the SNL cells were removed with CTK and the remaining cells were then dissociated using Accumax (ICT). The cells were transferred on a 96-well plate (Lipidure-coat 96-well plate (NOF Corporation)) in an amount of 9×10^3 cells per well. Thereafter, the cells were subjected to a suspension culture in DMEM/F12 (WAKO) comprising 50 μM Y-27632 (WAKO), 10 μM SB43152 (Sigma), 10 ng/ml bFGF (Invitrogen), various types of Wnt inhibitors (DKK1 (R & D, 500 ng/ml), C59 (Cellagen Technology, 2-10 nM), XAV (Stemgent, 500 nM-2 μM) or IWP4 (Stemgent, 500 nM-2.5 μM)), LDN193189 (Stemgent), KSR (Invitrogen), 0.1 mM MEM non-essential amino acid (Invitrogen), 0.1 mM 2-mercaptoethanol (WAKO), and 2 mM L-Gln (Invitrogen) (initiation of differentiation induction, day 0). […]
The concentration of LDN193189 used in the above-described induction method was examined. […] Furthermore, the expression levels of the CoupTF1 and Sfrp1 genes were measured according to a qPCR method (FIG. 5C). […]

How did the “sphere formation in the suspension culture” value ([1]; 1 μM C59, 18 days) turn out when `Cc1cc(-c2ccc(CC(=O)Nc3ccc(-c4cccnc4)cc3)cc2)ccn1` [C59] was run?
Its value is “no spheres were formed”.

What about the “Pax6-positive cells in spheres (immunostaining)” value ([1]; without C59, 2.5 nM and 10 nM C59, 18 days) of the same molecule?
The value was “positive cells were confirmed under all conditions”.

And the “CoupTF1-negative Ctip2-positive cerebral cortex neurons induced” value [2]?
The value was “a large number”.

— patent US10626368B2, “Method for inducing cerebral cortex neurons” (KYOTO UNIVERSITY, priority 2015, dated 2020)
